Results as given in US8119589B2, “Modulation of CD4+ T cell responses by a tick saliva protein, Salp15 and polypeptides derived therefrom” (University of North Carolina at Charlotte, priority 2004, dated 2012).

Key:
CD8+ cells = assay: Salp15488 binding on cell surface by confocal microscopy; set-up: species or system mouse
CD4 on HeLa-CD4 cells = biological target: T1, CD4 on HeLa-CD4 cells (Homo sapiens, UniProt P01730); assay: Competition of Salp15488 binding to HeLa-CD4 cells; details: Salp15 or lysozyme 0.5 mg/mL
T1 construct: host or cells: HeLa
Experimental: For colocalization experiments, Jurkat and CD4^+ T cells were cytospun as described herein. HeLa and HeLa-CD4 cells were grown on chamber slides. The cells were fixed and stained with anti-CD4 and Salp15 as follows. Purified Salp15 was labeled using Alexa-488 with the Protein Labeling Kit (Molecular Probes) according to the manufacturer's instructions. Fixed cells were blocked with 5% normal serum and anti-CD16/CD32 (1:100) in PBS, incubated with 1 μg of monoclonal biotinylated anti-CD4 (L3T4) (BD Biosciences Pharmingen) followed by streptavidin594 staining. The cells were then stained with 20 μg/mL of Salp15488. For competition assays, cells were first blocked with 5% normal serum, incubated with either polyclonal anti-CD4 antibody, MT310, OKT4, normal rabbit IgG, Salp15 (0.5 mg/mL) or lysozyme (0.5 mg/mL) followed by staining with Salp15488. All samples were mounted in a GVA Mount (Zymed, San Francisco, Calif., U.S.A.) and visualized with an Olympus Confocal microscope equipped with Fluoview 3.0 software.

sCD4 = biological target: T2, sCD4 (Homo sapiens, UniProt P01730); assay: Microtiter binding of sCD4-HRP to plate-bound Salp15 and synthetic peptides; details: plate-bound Salp15 pre-treated with 10 mM DTT
T2 construct: the extracellular four domains of CD4 (sCD4); purchased Research Diagnostics Inc., Flanders, N.J., U.S.A
Experimental: Purified sCD4 was coated overnight at 4° C. at the indicated concentrations in 0.1M sodium carbonate buffer (pH 9.5) in 96 well plates. Equimolar amounts of lysozyme were used as a non-specific control. The wells were washed, blocked with 10% FCS/PBS for 1 hr at R.T., and incubated with Salp15 (0.4 μM) for 2 hr at 37° C. Salp15 binding was detected by incubation with horseradish peroxidase (HRP)-conjugated anti-His antibody for 1 hr followed by microwell peroxidase substrate (KPL). The reaction was stopped by adding TMB stop solution (KPL). Chemically synthesized overlapping peptides of Salp15 were purchased from GenScript Corporation (Piscataway, N.J., U.S.A). To study the binding of Salp15 and peptides to sCD4, Salp15 (5 μg) and different peptides (0.5 μg) were coated. The wells were washed and blocked prior to incubation with sCD4-HRP (Research Diagnostics Inc., Flanders, N.J., U.S.A.). For competition assays, indicated concentrations of Salp15 or P11 were added to sCD4-HRP and incubated with plate bound P11 (0.1 μg). To estimate the effect of dithiothreitol (DTT) treatment of Salp15 on binding to sCD4, 0.5 μM Salp15 was treated with 10 mM DTT overnight and immobilized onto microtiter plate followed by blocking and incubation with sCD4-HRP.
Dissociation constants were determined by non-linear curve fit. The results are expressed as the mean±S.E. of 3 to 5 individual experiments.

CD4+ T cells = assay: INFγ-mediated STAT1 phosphorylation in CD4+ T cells; type: cell-based, mouse; details: 20 ng/mL INFγ; Salp15 50 μg/mL
Experimental: For tyrosine phosphorylation western analysis, cells were lysed in 60 mM Tris (pH 7.4) containing 150 mM NaCl, 5 mM EDTA, 1 mM EGTA, 1 mM β-glycerol phosphate, 2.5 mM sodium pyrophosphate, 25 mM NaF, 2 mM sodium orthovanadate, 1% Triton-X 100, 0.25% sodium deoxycholate, 1 mM PMSF and protease inhibitors for 15 min on ice, sonicated 4×5 sec and incubated at 37° C. for 10 min. The lysate was cleared by centrifugation and boiled in SDS-sample buffer. The samples were subjected to SDS-PAGE, transferred to a nitrocellulose membrane and immunoblotted with anti-pTyr, anti-pPLCγ1 and anti-Vav1, anti-pSrc family (Tyr^416) to measure p-Lck^394 (Alonso et al., 2004), anti-Lck, anti-pZap70 (Tyr^319), anti-Zap70, p44/42 and p44/42 (phopho-Tyr^204/Thr^202). Vav1 was immunoprecipitated using anti-Vav1 and protein A-agarose beads overnight, subjected to SDS-PAGE followed by immunoblotting with anti-pTyr or anti-Vav1. To examine the effect of Salp15 on T cell stimulation with INFγ, CD4^+ T cells were preincubated with Salp15 at 50 μg/mL followed by activation with 20 ng/mL of mouse recombinant INFγ (R & D Systems, Minneapolis, Minn., U.S.A.) for 30 min at 37° C. The cells were lysed as above and subjected to SDS-PAGE and immunoblotting with anti-pSTAT1 and anti-STAT1.

[1] = test system: fusion of HL2/3 cells expressing HIV envelope proteins with HeLa-CD4 cells; assay: gp120-CD4-mediated cell fusion by luciferase assay (HeLa-CD4 + HL2/3 cells); type: cell-based; details: 10 and 50 ug/ml Salp15; 48 hours
Experimental: 106 HeLa-CD4 cells, clone 1022 (NIH AIDS Research & Reference Reagent Program, Germantown, Md., U.S.A.) were plated in a 6-well plate and transfected with the plasmid Blue 3′ LTR-luciferase (NIH AIDS Research & Reference Reagent Program) using the lipofectamin method (Invitrogen).
After 24 hours, the cells were trypsinized and mixed with HL2/3 cells that express HIV envelope proteins (NIH AIDS Research & Reference Reagent Program), encoding Gag, Nef, Rev, Tat and Env proteins from HIV (0.2×106 HeLa-CD4+0.2×106 HL2/3) in a 24-well plate at a final volume of 500 uL. The cells were incubated in the presence of 10 and 50 ug/ml of Salp15. The positive control was anti-CD4 Ab and the negative control was anti-CD3.
The cells were harvested after 48 hours, washed with PBS and lysed with 100 uL of Passive Lysis buffer (Promega) per well, for 15 min at RT. The lysates were transferred to Eppendorf tubes, spun at 10,000×g and assessed for Luciferase activity and protein content by the Bradford assay (BioRad). Luciferase activity is an indicator of cell fusion mediated by the interaction of HIV envelope proteins on HL2/3 cells and CD4 on HeLa-CD4 cells.

## Salp15: secreted salivary protein from Ixodes scapularis, SEQ ID NO: 2; recombinant His-tagged, produced in Drosophila S2 cells
CD8+ cells
  Staining of CD8+ cells: no staining
CD4 on HeLa-CD4 cells
  Competition of Salp15488 binding to HeLa-CD4 cells by preincubation: competed
sCD4
  CD4 binding after DTT pre-treatment compared to control Salp15: equivalent binding levels
CD4+ T cells
  INFγ-mediated phosphorylation of STAT1: unaffected
[1]
  Reduction in cell fusion (luciferase activity): concentration dependent reduction
